Values of other authors, collected in patent publication US20090075956A1 (priority 2005, published 2009).
Structures can show the parent of a compound that is named as a salt.

Structure (SMILES)	solubility in organic solvents (organic solvents such as ethanol, ether and chloroform)	solubility in water	solubility in alcohol (alcohol)	solubility in ether (ether)
O=[N+]([O-])O[C@H]1CO[C@H]2[C@@H]1OC[C@H]2O[N+](=O)[O-] [Diluted isosorbide dinitrate, 1,4,3,6-dianhydro-D-glucitol-2,5-dinitrate]	freely soluble	sparingly soluble		
NNc1nncc2ccccc12 [Hydralazine hydrochloride, hydralazine hydrochloride]		soluble	slightly soluble	very slightly soluble
